We go through 21 compounds from patent US9156796B2, “Benzoimidazole-carboxylic acid amide derivatives as APJ receptor modulators” (SANOFI, priority 2013, dated 2015).

This assay has as its target T1, human apelin receptor (Homo sapiens, UniProt P35414).
T1 construct: expressed in transfected cells
T1 sequence (P35414 1-380): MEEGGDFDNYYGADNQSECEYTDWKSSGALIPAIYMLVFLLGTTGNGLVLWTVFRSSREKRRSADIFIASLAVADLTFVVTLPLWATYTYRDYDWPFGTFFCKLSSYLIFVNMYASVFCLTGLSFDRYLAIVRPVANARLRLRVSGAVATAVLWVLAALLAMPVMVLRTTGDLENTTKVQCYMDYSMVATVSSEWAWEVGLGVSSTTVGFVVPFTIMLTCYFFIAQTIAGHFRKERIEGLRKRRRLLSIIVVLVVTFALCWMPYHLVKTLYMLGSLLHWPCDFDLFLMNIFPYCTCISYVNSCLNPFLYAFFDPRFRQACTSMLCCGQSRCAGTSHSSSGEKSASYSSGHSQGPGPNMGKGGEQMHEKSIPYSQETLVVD
The assay can be described thus: Determination of agonism on the human apelin receptor by a calcium fluorescence assay (FLIPR). In kind it is cell-based. The following applies: HEK293 cells stably transfected with human apelin receptor and Giaq protein, Fluo-4 calcium fluorescence, read-out: EC50 (APJ agonism). In a few lines:
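Agonist EC50s come from peak intracellular calcium transients recorded by FLIPR Tetra, scaled to the 1 μM apelin-13 maximum per plate. Test system: HEK293 stably transfected with human apelin receptor plus Giaq, Fluo-4-loaded (4 μM, 1 h, 37 °C, pH 7.4 buffer with probenecid); ≥7 concentrations, triplicates.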
As a reminder, the EC50 is the concentration at which the effect is half-maximal. With `CCC(CC)n1c(Cc2cccs2)nc2cc(C(=O)N[C@@H](CC(C)C)C(=O)Nc3ccc(N(CC)CC)cc3)ccc21` [Example 242, 1-(1-Ethyl-propyl)-2-thiophen-2-ylmethyl-1H-benzoimidazole-5-carboxylic acid [(S)-1-(4-diethylamino-phenylcarbamoyl)-3-methyl-butyl]-amide], the EC50 was found to be 5930 nM. For `CCC(CC)n1c(Cc2cccs2)nc2cc(C(=O)N[C@@H](CC(C)C)C(=O)N3CCCC(COC)C3)ccc21` (stereo partly drawn) [Example 378, 1-(1-Ethyl-propyl)-2-thiophen-2-ylmethyl-1H-benzoimidazole-5-carboxylic acid [(S)-1-(3-methoxymethyl-piperidine-1-carbonyl)-3-methyl-butyl]-amide] the value was 2440 nM; for `C[C@@H]1CCCC[C@H]1n1c(Cc2cccs2)nc2cc(C(=O)NC3(CC(=O)O)CCCCC3)ccc21` [Example 66, (1-{[1-((1R,2R)-2-Methyl-cyclohexyl)-2-thiophen-2-ylmethyl-1H-benzoimidazole-5-carbonyl]-amino}-cyclohexyl)-acetic acid], 87 nM; for `CC(C)C[C@H](NC(=O)c1ccc2c(c1)nc(Cc1ccsc1)n2C1CCCCC1C)C(=O)O` (stereo partly drawn) [Example 139, (S)-4-Methyl-2-{[1-(2-methyl-cyclohexyl)-2-thiophen-3-ylmethyl-1H-benzoimidazole-5-carbonyl]-amino}-pentanoic acid], 285 nM.

Turning to `CCC(CC)n1c(Cc2ccsc2)nc2cc(C(=O)N[C@H](CC(=O)O)CC(C)C)ccc21` [Example 156, (S)-3-{[1-(1-Ethyl-propyl)-2-thiophen-3-ylmethyl-1H-benzoimidazole-5-carbonyl]-amino}-5-methyl-hexanoic acid], the EC50 turned out to be 210 nM. As for `CCC(CC)n1c(Cc2cccs2)nc2cc(C(=O)N[C@@H](CC(C)C)C(=O)N3CCC(N4CCOCC4)CC3)ccc21` [Example 334, 1-(1-Ethyl-propyl)-2-thiophen-2-ylmethyl-1H-benzoimidazole-5-carboxylic acid [(S)-3-methyl-1-(4-morpholin-4-yl-piperidine-1-carbonyl)-butyl]-amide], the figure is 412 nM; as for `CCC(CC)n1c(Cc2cccs2)nc2cc(C(=O)N[C@@H](CC(C)C)C(=O)NCC(C)(C)OC)ccc21` [Example 394, 1-(1-Ethyl-propyl)-2-thiophen-2-ylmethyl-1H-benzoimidazole-5-carboxylic acid [(S)-1-(2-methoxy-2-methyl-propylcarbamoyl)-3-methyl-butyl]-amide], 2330 nM; as for `CCC(CC)n1c(Cc2cccs2)nc2cc(C(=O)N[C@@H](CC(C)C)C(=O)NCC3CN(C)CCO3)ccc21` (stereo partly drawn) [Example 343, 1-(1-Ethyl-propyl)-2-thiophen-2-ylmethyl-1H-benzoimidazole-5-carboxylic acid {(S)-3-methyl-1-[(4-methyl-morpholin-2-ylmethyl)-carbamoyl]-butyl}-amide], 419 nM. For `CCC(CC)n1c(Cc2cccs2)nc2cc(C(=O)N[C@@H](CC(C)C)C(=O)N3CC4CC3CN4c3cccc(F)c3)ccc21` (stereo partly drawn) [Example 326, 1-(1-Ethyl-propyl)-2-thiophen-2-ylmethyl-1H-benzoimidazole-5-carboxylic acid {(S)-1-[5-(3-fluoro-phenyl)-2,5-diaza-bicyclo[2.2.1]heptane-2-carbonyl]-3-methyl-butyl}-amide] the value was 16400 nM.

`CCC(CC)n1c(Cc2cccs2)nc2cc(C(=O)N[C@@H](CO)CCSC)ccc21` [Example 195, 1-(1-Ethyl-propyl)-2-thiophen-2-ylmethyl-1H-benzoimidazole-5-carboxylic acid ((R)-1-hydroxymethyl-3-methylsulfanyl-propyl)-amide]: the EC50 is 15200 nM.

`CCC(CC)n1c(Cc2cccs2)nc2cc(C(=O)N[C@H](CO)CC(C)C)ccc21` [Example 209, 1-(1-Ethyl-propyl)-2-thiophen-2-ylmethyl-1H-benzoimidazole-5-carboxylic acid ((S)-1-hydroxymethyl-3-methyl-butyl)-amide]: the EC50 worked out at 254 nM. As for `CCC(CC)n1c(Cc2cccs2)nc2cc(C(=O)N[C@@H](CC(C)C)C(=O)NC3CCN(Cc4ccccn4)CC3)ccc21` [Example 295, 1-(1-Ethyl-propyl)-2-thiophen-2-ylmethyl-1H-benzoimidazole-5-carboxylic acid [(S)-3-methyl-1-(1-pyridin-2-ylmethyl-piperidin-4-ylcarbamoyl)-butyl]-amide], the figure is 1830 nM; as for `CCC(CC)n1c(Cc2cccs2)nc2cc(C(=O)N[C@@H](CC(C)C)C(=O)N[C@H]3C[C@H]4CC[C@@H](C3)N4C)ccc21` [Example 276, 1-(1-Ethyl-propyl)-2-thiophen-2-ylmethyl-1H-benzoimidazole-5-carboxylic acid [(S)-3-methyl-1-((3R)-8-methyl-8-aza-bicyclo[3.2.1]oct-3-ylcarbamoyl)-butyl]-amide], 105 nM; as for `CCC(CC)n1c(CC2CCCCC2)nc2cc(C(=O)N[C@@H](CC(C)C)C(=O)O)ccc21` [Example 120, (S)-2-{[2-Cyclohexylmethyl-1-(1-ethyl-propyl)-1H-benzoimidazole-5-carbonyl]-amino}-4-methyl-pentanoic acid], 24100 nM. As for `CCC(CC)n1c(Cc2cccs2)nc2cc(C(=O)N[C@@H](CC(C)C)C(=O)N3CCC(N4CCN(C)CC4)CC3)ccc21` [Example 280, 1-(1-Ethyl-propyl)-2-thiophen-2-ylmethyl-1H-benzoimidazole-5-carboxylic acid {(S)-3-methyl-1-[4-(4-methyl-piperazin-1-yl)-piperidine-1-carbonyl]-butyl}-amide], the figure is 219 nM; as for `CCC(CC)n1c(Cc2cccs2)nc2cc(C(=O)N[C@@H](CC(C)C)C(=O)NCC3CCN(Cc4ccccc4)C3)ccc21` (stereo partly drawn) [Example 290, 1-(1-Ethyl-propyl)-2-thiophen-2-ylmethyl-1H-benzoimidazole-5-carboxylic acid {(S)-1-[(1-benzyl-pyrrolidin-3-ylmethyl)-carbamoyl]-3-methyl-butyl}-amide], 506 nM; as for `C[C@@H]1CCCC[C@H]1n1c(Cc2cccs2)nc2cc(C(=O)NC(CC(=O)O)CC3CCCCC3)ccc21` (single isomer, unassigned) [Example 456], 152 nM.

Regarding `CCC(CC)n1c(Cc2cscn2)nc2cc(C(=O)N[C@H](CO)CC(C)C)ccc21` [Example 205, 1-(1-Ethyl-propyl)-2-thiazol-4-ylmethyl-1H-benzoimidazole-5-carboxylic acid ((S)-1-hydroxymethyl-3-methyl-butyl)-amide], the EC50 came out at 1750 nM. Take `CCC(CC)n1c(CC2CCCC2)nc2cc(C(=O)NC(CC(=O)O)c3ccccc3)ccc21` (stereo not drawn) [Example 43, 3-{[2-Cyclopentylmethyl-1-(1-ethyl-propyl)-1H-benzoimidazole-5-carbonyl]-amino}-3-phenyl-propionic acid]: the EC50 was 14500 nM.

Take `CC[C@H](C)[C@@H](CCC(=O)O)NC(=O)c1ccc2c(c1)nc(Cc1cccs1)n2[C@@H]1CCCC[C@H]1C` [Example 72, (4R,5S)-5-Methyl-4-{[1-((1R,2R)-2-methyl-cyclohexyl)-2-thiophen-2-ylmethyl-1H-benzoimidazole-5-carbonyl]-amino}-heptanoic acid]: the EC50 came to 47 nM. For `CCCCC(NC(=O)c1ccc2c(c1)nc(Cc1cccs1)n2C(CC)CC)C(C)(C)C(=O)O` (single isomer, unassigned) [Example 469] the value was 60 nM.
